These results are taken from patent US5352690A, “1,2,4-trioxygenated benzene derivatives useful as leukotriene antagonists” (Eli Lilly and Company, priority 1992, dated 1994).

In experiment [1] the target is [^3 H]-LTB4 binding, guinea pig lung membranes (Cavia porcellus, UniProt H0VYV8). Description: [^3 H]-LTB4 Radioligand Binding Assay in Guinea Pig Lung Membranes. Particulars: read-out: Binding Guinea Pig Lung pKi (converted).
Experiment [2] deals with [^3 H]-LTB4 binding to receptors on human neutrophils (Homo sapiens, UniProt Q15722). The experiment is described as follows: biochemical. Particulars: [^3 H]-LTB4 2.65 nM (20 μl), 4° C., 10 minutes. The protocol: The effectiveness of the compounds of the present invention to inhibit binding of [^3 H]-LTB4 to human neutrophils was measured by using an adaptation of a radioligand binding assay developed by Goldman, D. W. and Goetzl, E. J.: Specific binding of leukotriene B4 to receptors on human polymornuclear leukocytes. J. Immunol. 129: 1600-1604(1982). Heparinized venous blood was drawn from normal human volunteers and neutrophils isolated by standard techniques of Ficoll-Hypaque centrifugation, dextran 70 sedimentation and hypotonic lysis. […] The binding assay was carried out in silanized 12×75 mm glass tubes by adding in the following order: 10 μl DMSO containing different amounts of test compound,20 μl of 2.65 nM [^3 H]-LTB4 and 500 μl of the cells suspended in Hanks' balanced salt solution containing 0.1% ovalbumin (2×10^7 cells/ml). Tubes were incubated at 4° C. for 10 minutes and the reaction terminated by isolating the cells with a Brandel MB-48R harvester. Radioactivity bound to the cells was measured by scintillation spectrometry. Nonspecific binding was determined by measuring the amount of label bound when a greater than 2000-fold excess of nonradioactive ligand was added. Appropriate corrections for nonspecific binding were made when analyzing the data.
Chain of [^3 H]-LTB4 binding to receptors on human neutrophils (Q15722 whole entry): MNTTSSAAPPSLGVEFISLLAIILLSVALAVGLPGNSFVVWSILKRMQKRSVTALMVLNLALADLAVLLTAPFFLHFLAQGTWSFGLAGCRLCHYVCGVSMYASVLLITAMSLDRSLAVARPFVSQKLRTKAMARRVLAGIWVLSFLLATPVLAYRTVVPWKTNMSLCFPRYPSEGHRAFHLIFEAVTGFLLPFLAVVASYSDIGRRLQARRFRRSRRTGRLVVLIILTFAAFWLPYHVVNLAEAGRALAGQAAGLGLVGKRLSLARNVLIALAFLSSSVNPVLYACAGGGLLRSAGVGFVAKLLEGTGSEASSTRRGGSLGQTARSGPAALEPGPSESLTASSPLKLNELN

Molecules are shown by their SMILES. Where a name gives a salt, the structure may show the parent alone.

Chain of [^3 H]-LTB4 binding, guinea pig lung membranes (H0VYV8 1-348): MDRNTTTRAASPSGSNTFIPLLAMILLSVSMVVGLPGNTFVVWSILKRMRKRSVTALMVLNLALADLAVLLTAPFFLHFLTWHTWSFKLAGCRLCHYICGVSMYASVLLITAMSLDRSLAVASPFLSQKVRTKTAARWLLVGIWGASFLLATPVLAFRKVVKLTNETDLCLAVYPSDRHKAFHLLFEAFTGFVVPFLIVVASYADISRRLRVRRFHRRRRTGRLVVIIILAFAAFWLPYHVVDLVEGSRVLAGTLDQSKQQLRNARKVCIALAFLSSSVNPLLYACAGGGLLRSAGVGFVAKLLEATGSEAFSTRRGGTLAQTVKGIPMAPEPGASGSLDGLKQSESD

In the case of `CCOc1cc(CC)c(OCCCCCC(C)(C)c2nn[nH]n2)cc1O` [sodium salt], in experiment [1], the Ki is 12.3 nM.
The same measure, in the same setting: next, `CCCCCOc1cc(CC)c(OCCCCCC(C)(C)c2nn[nH]n2)cc1O` [sodium salt]: 21.4 nM.
Regarding `CCCc1c(OCCCOc2cc(O)c(OC)cc2CC)ccc2c1OC(C(=O)O)CC2` (stereo not shown) [Example 9, 3,4-Dihydro-8-propyl-7-[3-(2-ethyl-5-hydroxy-4-methoxy-phenoxy)propoxy]-2H-1-benzopyran-2-carboxylic acid], the IC50 (in general, the midpoint of a concentration-inhibition curve) in experiment [2] was 2.9 nM. In addition, the Ki in experiment [1] was 1.51 nM.
For the molecule `CCCc1c(OCCCOc2cc(O)c(OCC)cc2CC)ccc2c1OC(C(=O)O)CC2` (stereo not shown) [Example 10, 3,4-Dihydro-8-propyl-7-[3-(2-ethyl-5-hydroxy-4-ethoxy-phenoxy)propoxy]-2H-1-benzopyran-2-carboxylic acid], the IC50 in experiment [2] amounted to 4.2 nM. Moreover, in experiment [1], the Ki is 1.29 nM.
Take `CCc1cc(OCc2ccc(F)cc2)c(O)cc1OCCCCCC(C)(C)c1nn[nH]n1` [sodium salt]: in experiment [1], the Ki is 110 nM.
On to `CCc1cc(OC)c(O)cc1OCCCCCC(C)(C)c1nn[nH]n1` [sodium salt], for which the Ki in experiment [1] is 22.9 nM.
As to `CCc1cc(OC(C)C)c(O)cc1OCCCCCC(C)(C)c1nn[nH]n1` [sodium salt], the Ki in experiment [1] is 40.7 nM.
In experiment [2], `CCc1cc(Sc2ccccc2)c(O)cc1OCCCCCC(C)(C)c1nn[nH]n1` [disodium salt] showed an IC50 of 885 nM. Besides, the Ki in experiment [1] is 219 nM.
On to `CCc1cc(OCCC(C)C)c(O)cc1OCCCCCC(C)(C)c1nn[nH]n1` [sodium salt], for which, in experiment [1], the Ki is 74.1 nM.
As for `CCc1cc(OC2CCCC2)c(O)cc1OCCCCCC(C)(C)c1nn[nH]n1` [sodium salt], the Ki in experiment [1] was 77.6 nM.
